Active and inactive are the calls of the source. The calls are words filed in the database; no cut-off is given here.
Assays:
[1] = tested on: Mus musculus; test: Antinociceptive activity in ip dosed Swiss mouse assessed as reduction of formalin-induced neurogenic pain administered 60 mins before formalin challenge measured during 0 to 5 mins; format: functional
[2] = tested on: Mus musculus; test: Antinociceptive activity in ip dosed Swiss mouse assessed as reduction of acetic acid-induced abdominal constructions administered 30 mins before acetic acid challenge measured for 20 mins; format: functional; conditions: Abdomen, read-out: ID50 (the source's name)
[3] = tested on: Mus musculus; test: Antinociceptive activity in ip dosed Swiss mouse assessed as reduction of formalin-induced inflammatory pain administered 60 mins before formalin challenge measured during 15 to 30 mins; format: functional; conditions: read-out: ID50 (the source's name)
[4] = tested on: Mus musculus; test: Antinociceptive activity in Swiss mouse assessed as reduction of formalin-induced inflammatory pain at 1 to 10 mg/kg, ip administered 60 mins before formalin challenge measured during 15 to 30 mins relative to control; format: functional; conditions: route intraperitoneal
[5] = tested on: Mus musculus; test: Antinociceptive activity in Swiss mouse assessed as reduction of acetic acid-induced abdominal constructions at 1 to 10 mg/kg, ip administered 30 mins before acetic acid challenge measured after 20 mins relative to control; format: functional, Abdomen; conditions: dose mg/kg 1-10; route intraperitoneal
[6] = tested on: Mus musculus; test: Antinociceptive activity in Swiss mouse assessed as reduction of formalin-induced neurogenic pain at 1 to 10 mg/kg, ip administered 60 mins before formalin challenge measured during 0 to 5 mins relative to control; format: functional; conditions: route intraperitoneal

Row | Compound | Activity [1] | ED50 [2] | ED50 [3] | inhibition (INH) [4] | inhibition (INH) [5] | ED50 ([1]; read-out: ID50 (the source's name)) | inhibition (INH) [6]
1 | CC(=O)Nc1ccc(O)cc1 [ACETAMINOPHEN] | inactive | 125 µmol/kg | 120 µmol/kg | 85% | 88% | – | –
2 | CC(=O)Oc1ccccc1C(=O)O [ASPIRIN] | inactive | 133 µmol/kg | 123 µmol/kg | 88% | 83% | – | –
3 | C[C@@H]1CC[C@]2(C(=O)O[C@@H]3O[C@H](CO)[C@@H](O)[C@H](O)[C@H]3O)CC[C@]3(C)C(=CC[C@@H]4[C@@]5(C)C[C@@H](O)[C@H](O)[C@@](C)(CO)[C@@H]5CC[C@]43C)[C@@H]2[C@]1(C)O [NIGAICHIGOSIDE F1] | – | 4.6 µmol/kg | 4.1 µmol/kg | 94% | 67.6% | 3.9 µmol/kg | 70.4%

— ChEMBL document CHEMBL1144090, “Antinociceptive activity of niga-ichigoside F1 from Rubus imperialis” (1999)
